ChEMBL document CHEMBL3286253, “Design, synthesis, and structure-activity relationship studies of novel thioether pleuromutilin derivatives as potent antibacterial agents” (J Med Chem, 2014)
Converted amounts (≈) assume the structure as drawn.

Key:
Assay type in all cases: functional
Staphylococcus aureus [1] = assay: Antibacterial activity against methicillin-resistant Staphylococcus aureus after 16 hrs by agar dilution method
[2] = test system: Staphylococcus epidermidis; assay: Antibacterial activity against methicillin-resistant Staphylococcus epidermidis after 16 hrs by agar dilution method
Staphylococcus aureus [3] = assay: Antibacterial activity against methicillin-sensitive Staphylococcus aureus after 16 hrs by agar dilution method
[4] = test system: Staphylococcus epidermidis; assay: Antibacterial activity against methicillin-sensitive Staphylococcus epidermidis after 16 hrs by agar dilution method
Staphylococcus aureus [5] = assay: Antibacterial activity against Staphylococcus aureus […] after 16 hrs by agar dilution method
Streptococcus pneumoniae = assay: Antibacterial activity against penicillin-resistant Streptococcus pneumoniae after 16 hrs by agar dilution method

Compound	MIC (Staphylococcus aureus [1]) [mg/L]	MIC [2] [mg/L]	MIC (Staphylococcus aureus [3]) [mg/L]	MIC [4] [mg/L]	MIC (Staphylococcus aureus [5]) [mg/L]	MIC (Streptococcus pneumoniae) [mg/L]
C=C[C@]1(C)C[C@@H](OC(=O)CSc2cc(CO)ccn2)[C@]2(C)[C@H](C)CC[C@]3(CCC(=O)[C@H]32)[C@@H](C)[C@@H]1O	0.125 (≈ 0.249 µM)	0.125 (≈ 0.249 µM)	0.125 (≈ 0.249 µM)	0.125 (≈ 0.249 µM)	0.125 (≈ 0.249 µM)	0.125 (≈ 0.249 µM)
C=C[C@]1(C)C[C@@H](OC(=O)CSc2cc(C#N)ccn2)[C@]2(C)[C@H](C)CC[C@]3(CCC(=O)[C@H]32)[C@@H](C)[C@@H]1O	0.063 (≈ 0.127 µM)	0.063 (≈ 0.127 µM)	0.063 (≈ 0.127 µM)	0.063 (≈ 0.127 µM)	0.125 (≈ 0.252 µM)	0.063 (≈ 0.127 µM)
C=C[C@]1(C)C[C@@H](OC(=O)CSc2cncc(NC(=O)CN(C)C)c2)[C@]2(C)[C@H](C)CC[C@]3(CCC(=O)[C@H]32)[C@@H](C)[C@@H]1O	0.125 (≈ 0.219 µM)	0.125 (≈ 0.219 µM)	0.5 (≈ 0.874 µM)	0.125 (≈ 0.219 µM)	0.5 (≈ 0.874 µM)	0.125 (≈ 0.219 µM)
C=C[C@]1(C)C[C@@H](OC(=O)CSc2cncc(NC(=O)[C@H]3CCCCN3)c2)[C@]2(C)[C@H](C)CC[C@]3(CCC(=O)[C@H]32)[C@@H](C)[C@@H]1O	0.125 (≈ 0.209 µM)	0.125 (≈ 0.209 µM)	0.063 (≈ 0.105 µM)	0.031 (≈ 0.0519 µM)	0.125 (≈ 0.209 µM)	0.125 (≈ 0.209 µM)
C=C[C@]1(C)C[C@@H](OC(=O)CSc2ccc([N+](=O)[O-])cn2)[C@]2(C)[C@H](C)CC[C@]3(CCC(=O)[C@H]32)[C@@H](C)[C@@H]1O	0.5 (≈ 0.968 µM)	0.25 (≈ 0.484 µM)	0.25 (≈ 0.484 µM)	0.25 (≈ 0.484 µM)	1 (≈ 1.94 µM)	0.5 (≈ 0.968 µM)
C=C[C@]1(C)C[C@@H](OC(=O)CSc2cncc(NC(=O)CN3CCCC(CO)C3)c2)[C@]2(C)[C@H](C)CC[C@]3(CCC(=O)[C@H]32)[C@@H](C)[C@@H]1O (stereo partly specified)	0.063 (≈ 0.0981 µM)	0.063 (≈ 0.0981 µM)	0.063 (≈ 0.0981 µM)	0.063 (≈ 0.0981 µM)	0.063 (≈ 0.0981 µM)	0.063 (≈ 0.0981 µM)
C=C[C@]1(C)C[C@@H](OC(=O)CSc2cncc(/C=N/OC)c2)[C@]2(C)[C@H](C)CC[C@]3(CCC(=O)[C@H]32)[C@@H](C)[C@@H]1O	0.25 (≈ 0.473 µM)	0.25 (≈ 0.473 µM)	0.125 (≈ 0.236 µM)	0.25 (≈ 0.473 µM)	0.125 (≈ 0.236 µM)	0.5 (≈ 0.946 µM)
C=C[C@]1(C)C[C@@H](OC(=O)CSc2cncc(NC(=O)CN3CCC[C@H]3CO)c2)[C@]2(C)[C@H](C)CC[C@]3(CCC(=O)[C@H]32)[C@@H](C)[C@@H]1O	0.125 (≈ 0.199 µM)	0.125 (≈ 0.199 µM)	0.125 (≈ 0.199 µM)	0.125 (≈ 0.199 µM)	0.063 (≈ 0.1 µM)	0.125 (≈ 0.199 µM)
C=C[C@]1(C)C[C@@H](OC(=O)CSc2cncc(NC(=O)CNCCO)c2)[C@]2(C)[C@H](C)CC[C@]3(CCC(=O)[C@H]32)[C@@H](C)[C@@H]1O	0.25 (≈ 0.425 µM)	0.25 (≈ 0.425 µM)	0.125 (≈ 0.213 µM)	0.125 (≈ 0.213 µM)	0.125 (≈ 0.213 µM)	0.063 (≈ 0.107 µM)
C=C[C@]1(C)C[C@@H](OC(=O)CSc2ccnc(N)c2)[C@]2(C)[C@H](C)CC[C@]3(CCC(=O)[C@H]32)[C@@H](C)[C@@H]1O	0.063 (≈ 0.129 µM)	0.063 (≈ 0.129 µM)	0.063 (≈ 0.129 µM)	0.063 (≈ 0.129 µM)	0.063 (≈ 0.129 µM)	0.063 (≈ 0.129 µM)
C=C[C@]1(C)C[C@@H](OC(=O)CSc2cccs2)[C@]2(C)[C@H](C)CC[C@]3(CCC(=O)[C@H]32)[C@@H](C)[C@@H]1O	0.5 (≈ 1.05 µM)	0.25 (≈ 0.524 µM)	0.5 (≈ 1.05 µM)	0.25 (≈ 0.524 µM)	0.5 (≈ 1.05 µM)	0.125 (≈ 0.262 µM)
C=C[C@]1(C)C[C@@H](OC(=O)CSc2cncc(F)c2)[C@]2(C)[C@H](C)CC[C@]3(CCC(=O)[C@H]32)[C@@H](C)[C@@H]1O	0.25 (≈ 0.511 µM)	0.25 (≈ 0.511 µM)	0.25 (≈ 0.511 µM)	0.125 (≈ 0.255 µM)	0.5 (≈ 1.02 µM)	0.25 (≈ 0.511 µM)
C=C[C@]1(C)C[C@@H](OC(=O)CSc2cncc(C(=O)OC)c2)[C@]2(C)[C@H](C)CC[C@]3(CCC(=O)[C@H]32)[C@@H](C)[C@@H]1O	0.125 (≈ 0.236 µM)	0.25 (≈ 0.472 µM)	1 (≈ 1.89 µM)	1 (≈ 1.89 µM)	1 (≈ 1.89 µM)	0.25 (≈ 0.472 µM)
C=C[C@]1(C)C[C@@H](OC(=O)CSc2ncccn2)[C@]2(C)[C@H](C)CC[C@]3(CCC(=O)[C@H]32)[C@@H](C)[C@@H]1O	0.063 (≈ 0.133 µM)	0.063 (≈ 0.133 µM)	0.125 (≈ 0.264 µM)	0.125 (≈ 0.264 µM)	0.125 (≈ 0.264 µM)	0.125 (≈ 0.264 µM)
C=C[C@]1(C)C[C@@H](OC(=O)CSc2ccc(CO)nc2)[C@]2(C)[C@H](C)CC[C@]3(CCC(=O)[C@H]32)[C@@H](C)[C@@H]1O	0.031 (≈ 0.0618 µM)	0.031 (≈ 0.0618 µM)	0.063 (≈ 0.126 µM)	0.25 (≈ 0.498 µM)	0.5 (≈ 0.997 µM)	0.063 (≈ 0.126 µM)
C=C[C@]1(C)C[C@@H](OC(=O)CSc2cncc(O)c2)[C@]2(C)[C@H](C)CC[C@]3(CCC(=O)[C@H]32)[C@@H](C)[C@@H]1O	0.063 (≈ 0.129 µM)	0.063 (≈ 0.129 µM)	0.063 (≈ 0.129 µM)	0.063 (≈ 0.129 µM)	0.125 (≈ 0.256 µM)	0.063 (≈ 0.129 µM)
C=C[C@]1(C)C[C@@H](OC(=O)CSc2cncc(NC(=O)CN3CCCCC3)c2)[C@]2(C)[C@H](C)CC[C@]3(CCC(=O)[C@H]32)[C@@H](C)[C@@H]1O	0.25 (≈ 0.409 µM)	0.125 (≈ 0.204 µM)	0.125 (≈ 0.204 µM)	0.125 (≈ 0.204 µM)	0.125 (≈ 0.204 µM)	0.125 (≈ 0.204 µM)
C=C[C@]1(C)C[C@@H](OC(=O)CSc2cncc(/C=N/N)c2)[C@]2(C)[C@H](C)CC[C@]3(CCC(=O)[C@H]32)[C@@H](C)[C@@H]1O	0.25 (≈ 0.487 µM)	0.25 (≈ 0.487 µM)	0.25 (≈ 0.487 µM)	0.25 (≈ 0.487 µM)	0.25 (≈ 0.487 µM)	0.25 (≈ 0.487 µM)
C=C[C@]1(C)C[C@@H](OC(=O)CSc2ccncc2)[C@]2(C)[C@H](C)CC[C@]3(CCC(=O)[C@H]32)[C@@H](C)[C@@H]1O	0.063 (≈ 0.134 µM)	0.063 (≈ 0.134 µM)	0.063 (≈ 0.134 µM)	0.063 (≈ 0.134 µM)	0.031 (≈ 0.0657 µM)	0.063 (≈ 0.134 µM)
C=C[C@]1(C)C[C@@H](OC(=O)CSc2ccnc(CO)c2)[C@]2(C)[C@H](C)CC[C@]3(CCC(=O)[C@H]32)[C@@H](C)[C@@H]1O	0.031 (≈ 0.0618 µM)	0.031 (≈ 0.0618 µM)	0.063 (≈ 0.126 µM)	0.031 (≈ 0.0618 µM)	0.063 (≈ 0.126 µM)	0.063 (≈ 0.126 µM)
C=C[C@]1(C)C[C@@H](OC(=O)CSc2ncccc2C#N)[C@]2(C)[C@H](C)CC[C@]3(CCC(=O)[C@H]32)[C@@H](C)[C@@H]1O	0.5 (≈ 1.01 µM)	0.5 (≈ 1.01 µM)	0.5 (≈ 1.01 µM)	0.5 (≈ 1.01 µM)	1 (≈ 2.01 µM)	0.5 (≈ 1.01 µM)
C=C[C@]1(C)C[C@@H](OC(=O)CSc2ncccc2N)[C@]2(C)[C@H](C)CC[C@]3(CCC(=O)[C@H]32)[C@@H](C)[C@@H]1O	0.25 (≈ 0.514 µM)	0.125 (≈ 0.257 µM)	0.25 (≈ 0.514 µM)	0.125 (≈ 0.257 µM)	0.5 (≈ 1.03 µM)	0.25 (≈ 0.514 µM)
C=C[C@]1(C)C[C@@H](OC(=O)CSc2cncc(/C=N/OCC)c2)[C@]2(C)[C@H](C)CC[C@]3(CCC(=O)[C@H]32)[C@@H](C)[C@@H]1O	1 (≈ 1.84 µM)	1 (≈ 1.84 µM)	1 (≈ 1.84 µM)	1 (≈ 1.84 µM)	1 (≈ 1.84 µM)	1 (≈ 1.84 µM)
C=C[C@]1(C)C[C@@H](OC(=O)CSc2cc(/C=N/O)ccn2)[C@]2(C)[C@H](C)CC[C@]3(CCC(=O)[C@H]32)[C@@H](C)[C@@H]1O	0.125 (≈ 0.243 µM)	0.125 (≈ 0.243 µM)	0.063 (≈ 0.122 µM)	0.063 (≈ 0.122 µM)	0.125 (≈ 0.243 µM)	0.25 (≈ 0.486 µM)
C=C[C@]1(C)C[C@@H](OC(=O)CSc2cc(/C=N/N)ccn2)[C@]2(C)[C@H](C)CC[C@]3(CCC(=O)[C@H]32)[C@@H](C)[C@@H]1O	0.5 (≈ 0.973 µM)	0.5 (≈ 0.973 µM)	0.5 (≈ 0.973 µM)	0.5 (≈ 0.973 µM)	0.5 (≈ 0.973 µM)	0.5 (≈ 0.973 µM)
C=C[C@]1(C)C[C@@H](OC(=O)CSc2cncc(NC(=O)CN3CCCC3)c2)[C@]2(C)[C@H](C)CC[C@]3(CCC(=O)[C@H]32)[C@@H](C)[C@@H]1O	0.125 (≈ 0.209 µM)	0.125 (≈ 0.209 µM)	0.125 (≈ 0.209 µM)	0.031 (≈ 0.0519 µM)	0.125 (≈ 0.209 µM)	0.031 (≈ 0.0519 µM)
